Laboratory results: patent publication US4610987A, “Imidazoquinazolin-2-one compounds” (Daiichi Seiyaku Co., Ltd., priority 1983, dated 1986)
≈ marks a conversion by molar mass, not a printed value. Read-outs that look alike come from different tables or passages of the source.

How the values were obtained:
[1] = test system: human platelet PDE II; test: Inhibitory activity on phosphodiesterase, platelet PDE II (cGMP); format: biochemical; settings: cGMP substrate
Procedure: (§1) Phosphodiesterase fractions were separated from 105,000×g of supernatant fractions from human platelets and heart by DEAE-cellulose column chromatography using the method of Timothy et al. (Arch. Biochem. Biophy. 196, 465-474, 1979) with minor modifications. These fractions were designated PDE I, PDE II and PDE III, depending upon the order of their emergence from the DEAE-cellulose column.
(§2) Phosphodiesterase activity was measured by the method of Thompson and Appleman (Biochemistry 10, 311-316, 1971) with slight modifications. The reaction mixture consisted of 25 mM of Tris-HCl (pH 7.4), 5 mM of MgCl2, 1 μM of [^3 H]-cAMP or cGMP (approximate 20,000 cpm), various concentrations of a test compound and the enzyme preparation. After incubation for 10 minutes at 30° C., the reaction was terminated by boiling the reaction mixture for 45 seconds. 5'-[^3 H]-AMP or GMP formed by phosphodiesterase was converted to [^3 H]adenosine or [^3 H]quanosine by snake venom (Botherop Atrox) containing 5'-nucleotidase and the product isolated by a cation exchange resin was counted in a liquid scintillation counter.

[2] = target: human heart PDE III; test: Inhibitory activity on phosphodiesterase, heart PDE III (cAMP); format: biochemical; settings: for IC50: cAMP substrate
Procedure: as §1, §2

[3] = test system: circulatory system; test: Test of Influence on Circulatory System (blood pressure, heart beats); format: in vivo, SLC-Wistar rat; settings: rat, 50 mg/Kg p.o.
Procedure: 5 or 6 male normal SLC-Wistar rats per group (body weight: 205-255 g) orally received 50 mg/Kg of the test compound, and the blood pressure (tail cuff method) and the heart beats were measured with the passage of time in order to elucidate influences of the test compound on the circulatory system.

[4] = test system: platelet aggregation (human platelet-rich-plasma); test: Test of Platelet Aggregation Inhibition (in vitro), human PRP; format: cell-based; settings: human blood, ADP-induced
Procedure: (§3) The test was performed as follows in accordance with the method of Ashida et al, Thrombosis and Haemostasis, Vol. 40, 542 (1979).
(§4) Blood was taken by puncture from the heart of a Wistar Imamichi rat under anesthesia with pentobarbital into a syringe containing 1/10 volume of a 3.13% aqueous solution of sodium citrate dihydrate, and the citrated blood was centrifuged to obtain a platelet-rich-plasma (PRP). In the same manner, citrated blood was collected from the vein of a healthy human who had not taken aspirin or any other anti-inflammatory agent since before 10 days, followed by centrifugation to obtain PRP. 5 μl of each test compound was added to 0.445 ml of each of these PRP samples, and the system was warmed at 30° C. for 1 minute. 50 μl of an aggregation inducer (ADP or collagen) was then added thereto, and platelet aggregation was determined according to the method of Born, Nature, Vol. 194, 927 (1962).

[5] = target: human heart PDE I; test: Inhibitory activity on phosphodiesterase, heart PDE I (cGMP); format: biochemical; settings: cGMP substrate
Procedure: as §1, §2

[6] = target: human platelet PDE I (Homo sapiens, UniProt O76074); test: Inhibitory activity on phosphodiesterase, platelet PDE I (cGMP); format: biochemical; settings: cGMP substrate
Procedure: as §1, §2

[7] = test system: platelet aggregation; test: Test of Platelet Aggregation Inhibition (ex vivo, p.o.); format: in vivo, Wistar Imamichi rat; settings: for inhibition at 10 mg/kg: Platelet, po, ex vivo, rat, 10 mg/Kg p.o., 1 hour, *P<0.05, **P<0.01, ***P<0.001
Procedure: One hour later, citrated blood was taken from the heart, and platelet aggregation was determined in the same manner as described in the in vitro test. The inhibitory activity was compared with that of control and expressed in terms of percent inhibition.

[8] = Solubility Test (water-solubility)
[9] = test system: platelet aggregation (rat platelet-rich-plasma); test: Test of Platelet Aggregation Inhibition (in vitro), rat PRP; format: cell-based, Wistar Imamichi rat; settings: for IC50: Platelet, in vitro, rat blood
Procedure: as §3, §4

[10] = target: human platelet PDE III (Homo sapiens, UniProt Q14432); test: biochemical; settings: for IC50: cAMP substrate
human platelet PDE III, sequence (Q14432 whole entry): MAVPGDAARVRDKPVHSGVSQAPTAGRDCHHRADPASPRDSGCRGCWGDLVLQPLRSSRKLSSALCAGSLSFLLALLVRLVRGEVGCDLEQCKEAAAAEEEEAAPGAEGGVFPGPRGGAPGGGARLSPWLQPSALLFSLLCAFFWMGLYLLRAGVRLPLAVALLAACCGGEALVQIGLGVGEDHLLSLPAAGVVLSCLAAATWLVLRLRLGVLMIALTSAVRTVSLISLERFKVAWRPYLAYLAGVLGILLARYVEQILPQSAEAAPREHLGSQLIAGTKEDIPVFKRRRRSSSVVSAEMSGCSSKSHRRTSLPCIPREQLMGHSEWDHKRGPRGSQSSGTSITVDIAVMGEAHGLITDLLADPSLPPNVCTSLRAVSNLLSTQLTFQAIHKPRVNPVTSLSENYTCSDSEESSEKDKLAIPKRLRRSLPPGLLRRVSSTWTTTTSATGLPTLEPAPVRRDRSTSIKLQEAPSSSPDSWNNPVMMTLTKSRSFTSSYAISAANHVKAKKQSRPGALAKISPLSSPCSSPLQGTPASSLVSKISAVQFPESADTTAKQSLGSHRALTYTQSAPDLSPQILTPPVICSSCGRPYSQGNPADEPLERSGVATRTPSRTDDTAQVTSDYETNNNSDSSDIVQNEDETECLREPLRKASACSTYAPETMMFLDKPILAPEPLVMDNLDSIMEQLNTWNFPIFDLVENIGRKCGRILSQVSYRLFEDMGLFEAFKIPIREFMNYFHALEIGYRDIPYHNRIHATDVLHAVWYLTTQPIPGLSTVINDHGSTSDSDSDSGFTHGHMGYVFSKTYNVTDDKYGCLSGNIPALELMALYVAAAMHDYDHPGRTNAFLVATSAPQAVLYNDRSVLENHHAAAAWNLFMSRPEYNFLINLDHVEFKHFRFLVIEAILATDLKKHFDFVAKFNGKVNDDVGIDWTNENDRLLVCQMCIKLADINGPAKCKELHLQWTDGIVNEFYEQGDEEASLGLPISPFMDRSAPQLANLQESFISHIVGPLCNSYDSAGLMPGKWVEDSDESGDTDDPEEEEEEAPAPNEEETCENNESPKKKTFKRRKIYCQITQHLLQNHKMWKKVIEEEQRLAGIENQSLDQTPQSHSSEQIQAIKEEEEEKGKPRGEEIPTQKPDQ
Procedure: as §1, §2

[11] = test system: platelet aggregation; test: Test of Platelet Aggregation Inhibition (ex vivo; i.v.); format: in vivo, Wistar Imamichi rat; settings: iv, 0.25 h, rat, i.v. 67 μg/Kg/min, 15 min
Procedure: As test animals, 5 to 6 Wistar Imamichi rats (body weight: about 260 g) that had been allowed food and water ad libitum were used per group. The test compound was dissolved in a physiological saline solution and continuously injected over a period of 10 or 15 minutes to the rats under anesthesia with pentobarbital through the femoral vein. Immediately after completion of the administration, citrated blood was collected from the heart, and platelet aggregation was determined in the same manner as in the test in vitro in Test Example 2.

[12] = test system: platelet aggregation induced by B16 melanoma cells; test: Inhibition on Platelet Aggregation Induced by Cancer Cells (in vitro), B16; format: cell-based, C57BL/6 mouse; design: key: +: Aggregation was observed.; ±: Aggregation was partially inhibited.; -: No aggregation was observed
Procedure: (§5) It is known nowadays that platelet aggregation plays an important role in metastasis of cancers. […] Tanaka et al. The effect of the compounds of this invention to inhibit the above-described cancer cell-induced platelet aggregation was tested as follows. Cell suspensions of B16 or 3LL were prepared according to the method of Tanaka et al, Invarsion and Metastasis, Vol. 2, 289 (1982). […] Platelet aggregation of the sample system was determined according to the method of Born, and the platelet aggregation inhibitory activity was expressed by the following scale: […]

[13] = test system: platelet aggregation induced by Lewis lung cancer (3LL) cells; test: Inhibition on Platelet Aggregation Induced by Cancer Cells (in vitro), 3LL; format: cell-based, C57BL/6 mouse; design: key: +: Aggregation was observed.; ±: Aggregation was partially inhibited.; -: No aggregation was observed
Procedure: as §5

[14] = ADP, read-out: ex vivo % inhibition of platelet aggregation, ADP
[15] = collagen, read-out: ex vivo % inhibition of platelet aggregation, Collagen
[16] = ADP-induced, read-out: IC50, platelet aggregation inhibition in vitro, ADP
[17] = collagen-induced, read-out: IC50, platelet aggregation inhibition in vitro, Collagen

Row | Structure (SMILES) | IC50 [1] | IC50 [2] | Increase in Heart Beat ([3]; 1 hr, **P<0.01) | Reduction in Blood Pressure ([3]; 1 hr, *P<0.05, **P<0.01) | Increase in Heart Beat ([3]; 2 hr, **P<0.01) | Reduction in Blood Pressure ([3]; 2 hr, *P<0.05, **P<0.01) | Increase in Heart Beat ([3]; 3 hr, **P<0.01) | Reduction in Blood Pressure ([3]; 3 hr, **P<0.01) | Increase in Heart Beat ([3]; 5 hr, **P<0.01) | Reduction in Blood Pressure ([3]; 5 hr, **P<0.01) | Increase in Heart Beat ([3]; 6 hr, *P<0.05, **P<0.01) | Reduction in Blood Pressure ([3]; 6 hr, *P<0.05, **P<0.01) | IC50 [4] | IC50 [5] | IC50 [6] | inhibition at 10 mg/kg [7, 14] | inhibition at 10 mg/kg [7, 15] | solubility ([8]; tap water, pH 2) | IC50 [9, 16] | IC50 [9, 17] | also measured
1 | O=C1CN2Cc3c(ccc(Cl)c3Cl)N=C2N1 [BL-4162, 6,7-dichloro-1,2,3,5-tetrahydro[2,1-b]quinazolin-2-one] | 3.3 µM | 0.096 µM | 28% | 11% | 37% | 16% | 31% | 17% | 31% | 14% | 31% | 13% | 1.2 µM | > 10 µM | 3.9 µM | 8% | 53% | < 10 µg/mL | 0.8 µM | 0.02 µM | Increase in Heart Beat ([3]; 4 hr, **P<0.01): 37%; Reduction in Blood Pressure ([3]; 4 hr, **P<0.01): 14%; aggregation inhibitory activity in ADP- or collagen-induced aggregation (in words) ([7]; orally administered, Table 2): widely varied depending on the individual animal and, therefore, cannot be regarded significant; solubility ([8]; water, pH 4, water): < 10 µg/mL
2 | CN(C)c1ccc2c(c1)CN1CC(=O)NC1=N2 [Example 21, 7-dimethylamino-1,2,3,5-tetrahydroimidazo[2,1-b]quinazolin-2-one] | 57 µM | 1.4 µM | 19% | 1.0% | 22% | 5.0% | 20% | 5.0% | 23% | 5.0% | 15% | 1.0% | 7.2 µM | > 100 µM | 70 µM | 29% | 48% | > 100000 µg/mL | 5.4 µM | 1.4 µM | activity on heart PDE (in words) ([2]; Table 6): strong activity on heart PDE; IC50 Ratio (PDE II) Heart/Platelet ([10]; Heart/Platelet): 1.1; IC50 [10]: 1.3 µM; inhibition at 0.067 mg/kg ([11]; ADP, *P<0.05, read-out: Percent Inhibition of platelet aggregation, ADP): 23%; inhibition at 0.067 mg/kg ([11]; collagen, *P<0.05, read-out: Percent Inhibition of platelet aggregation, Collagen): 71%; water-solubility (in words) [8]: water-soluble; solubility ([8]; water, pH 4, water): 180 µg/mL (≈ 782 µM); platelet aggregation inhibitory activity (in words) [9]: strong platelet aggregation inhibitory activity
3 | Cl.Cl.O.O=C1CN2Cc3cc(N4CCCCC4)c(Cl)cc3N=C2N1 [Example 16, 8-Chloro-7-piperidino-1,2,3,5-tetrahydroimidazo[2,1-b] quinazolin-2-one dihydrochloride monohydrate] | > 30 µM | 0.095 µM |  |  |  |  |  |  |  |  |  |  | 12.5 µM | > 10 µM | 30 µM | 34% | 76% |  | 0.4 µM | 0.46 µM | IC50 Ratio (PDE II) Heart/Platelet [10]: 11.6; selectivity to platelet PDE (in words) ([10]; Table 6): high selectivity to platelet PDE; IC50 [10]: 0.0082 µM; Inhibition on platelet aggregation induced by B16 ([12]; sample concn. 0.3 μM): ±; Inhibition on platelet aggregation induced by B16 ([12]; sample concn. 1 μM): -; Inhibition on platelet aggregation induced by 3LL ([13]; sample concn. 1 μM): +; Inhibition on platelet aggregation induced by 3LL ([13]; sample concn. 3 μM): -; Inhibition on platelet aggregation induced by 3LL ([13]; sample concn. 10 μM): -; water-solubility (in words) [8]: low water-solubility
